# Counter-ions that a name gives are not always drawn.
# Columns and labels:
# [1] = test system: RS4;11 leukaemia tumour line; assay: In vitro cytotoxicity (Microculture Tetrazolium Assay); format: cell-based; details: Homo sapiens, RS4-11, 48 h, RS4;11 cells, exposed for 48 hours, cell viability; read-out: IC50 (nM) MTT RS4;11
# Procedure: The cytotoxicity studies were carried out on the RS4;11 leukaemia tumour line.
# The cells are distributed onto microplates and exposed to the test compounds for 48 hours.
# The cell viability is then quantified by a colorimetric assay, the Microculture Tetrazolium Assay (Cancer Res., 1987, 47, 939-942).
# Bcl-2 protein = Bcl-2 protein (histag-Bcl-2, UniProtKB P10415) (Homo sapiens (Human), UniProt P10415); assay: Inhibition of Bcl-2 by the fluorescence polarisation technique; format: binding; details: incubation for 2 hours, read-out: IC50 (nM) Bcl-2 FP
# Sequence of Bcl-2 protein (P10415 whole entry): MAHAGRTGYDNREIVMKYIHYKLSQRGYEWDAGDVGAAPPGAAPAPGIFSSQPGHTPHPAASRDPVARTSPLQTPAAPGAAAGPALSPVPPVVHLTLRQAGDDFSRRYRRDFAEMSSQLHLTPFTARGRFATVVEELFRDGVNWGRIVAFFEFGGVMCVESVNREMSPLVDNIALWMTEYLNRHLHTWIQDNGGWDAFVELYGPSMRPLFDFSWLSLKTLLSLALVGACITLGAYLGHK
# How it was run: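 In pH 7.4 buffer (Hepes 10 mM, NaCl 150 mM, Tween20 0.05%), test compounds at increasing concentrations competed with a fluorescein peptide (1.00×10^−8 M final) for histag-Bcl-2 (2.50×10^−8 M final). Readout was fluorescence polarisation after a 2 h incubation.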
IC50 (Bcl-2 protein) [nM],Structure (SMILES),IC50 [1] [nM]
13.6,"COc1ncc(N(C(=O)c2cc(-c3ccccc3C(=O)N3Cc4ccccc4C[C@H]3CN3CCOCC3)n(C)c2C)c2ccc(O)cc2)cn1 [Example 424, N-(4-Hydroxyphenyl)-N-(2-methoxypyrimidin-5-yl)-1,2-dimethyl-5-(2-{[(3S)-3-(morpholin-4-ylmethyl)-3,4-dihydroisoquinolin-2(1H)-yl]carbonyl}phenyl)-1H-pyrrole-3-carboxamide hydrochloride]",102
4.2,"COc1cc(C#N)cc(N(C(=O)c2cc(-c3cc(F)ccc3C(=O)N3Cc4ccccc4C[C@H]3CN3CCOCC3)n(C)c2C)c2ccc(O)cc2)c1 [Example 425, N-(3-Cyano-5-methoxyphenyl)-5-(5-fluoro-2-{[(3S)-3-(morpholin-4-ylmethyl)-3,4-dihydroisoquinolin-2(1H)-yl]carbonyl}phenyl)-N-(4-hydroxyphenyl)-1,2-dimethyl-1H-pyrrole-3-carboxamide hydrochloride]",62
5.2,"COc1ncc(N(C(=O)c2cc(-c3cc(F)ccc3C(=O)N3Cc4ccccc4C[C@H]3CN3CCOCC3)n(C)c2C)c2ccc(O)cc2)cn1 [Example 426, 5-(5-Fluoro-2-{[(3S)-3-(morpholin-4-ylmethyl)-3,4-dihydroisoquinolin-2(1H)-yl]carbonyl}phenyl)-N-(4-hydroxyphenyl)-N-(2-methoxypyrimidin-5-yl)-1,2-dimethyl-1H-pyrrole-3-carboxamide]",139
2.2,"COc1ccc(N(C(=O)c2cc(-c3cc(F)ccc3C(=O)N3Cc4ccccc4C[C@H]3CN3CCOCC3)n(C)c2C)c2ccc(O)cc2)cc1C#N [Example 427, N-(3-Cyano-4-methoxyphenyl)-5-(5-fluoro-2-{[(3S)-3-(morpholin-4-ylmethyl)-3,4-dihydroisoquinolin-2(1H)-yl]carbonyl}phenyl)-N-(4-hydroxyphenyl)-1,2-dimethyl-1H-pyrrole-3-carboxamide hydrochloride]",23.3
3.5,"Cc1c(N(C(=O)c2cc(-c3ccc(F)cc3C(=O)N3Cc4ccccc4C[C@H]3CN3CCOCC3)n(C)c2C)c2ccc(O)cc2)cc(C#N)n1C [Example 428, N-(5-Cyano-1,2-dimethyl-1H-pyrrol-3-yl)-5-(4-fluoro-2-{[(3S)-3-(morpholin-4-ylmethyl)-3,4-dihydroisoquinolin-2(1H)-yl]carbonyl}phenyl)-N-(4-hydroxyphenyl)-1,2-dimethyl-1H-pyrrole-3-carboxamide hydrochloride]",59.2
3.1,"COc1cc(-c2cc(C(=O)N(c3ccc(O)cc3)c3cc(C#N)n(C)c3C)c(C)n2C)c(C(=O)N2Cc3ccccc3C[C@H]2CN2CCOCC2)cc1F [Example 429, N-(5-Cyano-1,2-dimethyl-1H-pyrrol-3-yl)-5-(4-fluoro-5-methoxy-2-{[(3S)-3-(morpholin-4-ylmethyl)-3,4-dihydroisoquinolin-2(1H)-yl]carbonyl}phenyl)-N-(4-hydroxyphenyl)-1,2-dimethyl-1H-pyrrole-3-carboxamide hydrochloride]",109
19.9,"Cc1c(C(=O)N(c2ccc(O)cc2)c2cnc3c(ccn3C)c2)cc(-c2cc(Cl)ccc2C(=O)N2Cc3ccccc3CC2C(F)(F)F)n1C (centres unmarked) [Example 430, 5-(5-Chloro-2-{[3-(trifluoromethyl)-3,4-dihydroisoquinolin-2(1H)-yl]-carbonyl}phenyl)-N-(4-hydroxyphenyl)-1,2-dimethyl-N-(1-methyl-1H-pyrrolo[2,3-b]-pyridin-5-yl)-1H-pyrrole-3-carboxamide]",328
3,"Cc1nn(C)cc1N(C(=O)c1cc(-c2cc(Cl)ccc2C(=O)N2Cc3ccccc3C[C@H]2CN2CCOCC2)n(C)c1C)c1ccc(O)cc1 [Example 431, 5-(5-Chloro-2-{[(3S)-3-(morpholin-4-ylmethyl)-3,4-dihydroisoquinolin-2(1H)-yl]carbonyl}phenyl)-N-(1,3-dimethyl-1H-pyrazol-4-yl)-N-(4-hydroxyphenyl)-1,2-dimethyl-1H-pyrrole-3-carboxamide hydrochloride]",89
3.4,"Cc1c(N(C(=O)c2cc(-c3cc(Cl)ccc3C(=O)N3Cc4ccccc4C[C@H]3CN3CCOCC3)n(C)c2C)c2ccc(O)cc2)cnn1C [Example 432, 5-(5-Chloro-2-{[(3S)-3-(morpholin-4-ylmethyl)-3,4-dihydroisoquinolin-2(1H)-yl]carbonyl}phenyl)-N-(1,5-dimethyl-1H-pyrazol-4-yl)-N-(4-hydroxyphenyl)-1,2-dimethyl-1H-pyrrole-3-carboxamide hydrochloride]",76.6
2.6,"Cc1c(C(=O)N(c2ccc(O)cc2)c2cc(C#N)n(C)c2)cc(-c2ccccc2C(=O)N2Cc3ccccc3C[C@H]2CN2CCOCC2)n1C [Example 433, N-(5-Cyano-1-methyl-1H-pyrrol-3-yl)-N-(4-hydroxyphenyl)-1,2-dimethyl-5-(2-{[(3S)-3-(morpholin-4-ylmethyl)-3,4-dihydroisoquinolin-2(1H)-yl]carbonyl}phenyl)-1H-pyrrole-3-carboxamide hydrochloride]",48.2
3.5,"Cc1c(C(=O)N(c2ccc(O)cc2)c2cnc3c(c2)CCN3C)cc(-c2cc(F)ccc2C(=O)N2Cc3ccccc3C[C@H]2CN2CCOCC2)n1C [Example 434, 5-(5-Fluoro-2-{[(3S)-3-(morpholin-4-ylmethyl)-3,4-dihydroisoquinolin-2(1H)-yl]carbonyl}phenyl)-N-(4-hydroxyphenyl)-1,2-dimethyl-N-(1-methyl-2,3-dihydro-1H-pyrrolo[2,3-b]pyridin-5-yl)-1H-pyrrole-3-carboxamide hydrochloride]",45.7
14.9,"COc1cc(C(=O)N2Cc3ccccc3C[C@H]2CN2CCOCC2)c(-c2cc(C(=O)N(c3ccc(O)cc3)c3cc(C#N)ccn3)c(C)n2C)cc1F [Example 435, N-(4-Cyanopyridin-2-yl)-5-(5-fluoro-4-methoxy-2-{[(3S)-3-(morpholin-4-ylmethyl)-3,4-dihydroisoquinolin-2(1H)-yl]carbonyl}phenyl)-N-(4-hydroxyphenyl)-1,2-dimethyl-1H-pyrrole-3-carboxamide hydrochloride]",441
49.1,"Cc1c(C(=O)N(c2ccc(O)cc2)c2ccc(C#N)s2)cc(-c2cc(Cl)ccc2C(=O)N2Cc3ccccc3C[C@H]2CN2CCOCC2)n1C [Example 436, 5-(5-Chloro-2-{[(3S)-3-(morpholin-4-ylmethyl)-3,4-dihydroisoquinolin-2(1H)-yl]carbonyl}phenyl)-N-(5-cyanothiophen-2-yl)-N-(4-hydroxyphenyl)-1,2-dimethyl-1H-pyrrole-3-carboxamide hydrochloride]",338
4.4,"Cc1c(C(=O)N(c2ccc(O)cc2)c2ccc(F)c(C#N)c2)cc(-c2cc(F)ccc2C(=O)N2Cc3ccccc3C[C@H]2CN2CCOCC2)n1C [Example 437, N-(3-Cyano-4-fluorophenyl)-5-(5-fluoro-2-{[(3S)-3-(morpholin-4-ylmethyl)-3,4-dihydroisoquinolin-2(1H)-yl]carbonyl}phenyl)-N-(4-hydroxyphenyl)-1,2-dimethyl-1H-pyrrole-3-carboxamide hydrochloride]",70.5
11.3,"Cc1c(C(=O)N(c2ccc(O)cc2)c2cnccn2)cc(-c2cc(Cl)ccc2C(=O)N2Cc3ccccc3C[C@H]2CN2CCOCC2)n1C [Example 438, 5-(5-Chloro-2-{[(3S)-3-(morpholin-4-ylmethyl)-3,4-dihydroisoquinolin-2(1H)-yl]carbonyl}phenyl)-N-(4-hydroxyphenyl)-1,2-dimethyl-N-(pyrazin-2-yl)-1H-pyrrole-3-carboxamide hydrochloride]",379
6.1,"COc1ncc(N(C(=O)c2cc(-c3cc(F)c(OC)cc3C(=O)N3Cc4ccccc4C[C@H]3CN3CCOCC3)n(C)c2C)c2ccc(O)cc2)cn1 [Example 439, 5-(5-Fluoro-4-methoxy-2-{[(3S)-3-(morpholin-4-ylmethyl)-3,4-dihydroisoquinolin-2(1H)-yl]carbonyl}phenyl)-N-(4-hydroxyphenyl)-N-(2-methoxypyrimidin-5-yl)-1,2-dimethyl-1H-pyrrole-3-carboxamide hydrochloride]",329
2.6,"COc1cc(C(=O)N2Cc3ccccc3C[C@H]2CN2CCOCC2)c(-c2cc(C(=O)N(c3ccc(O)cc3)c3cc(C#N)n(C)c3C)c(C)n2C)cc1F [Example 440, N-(5-Cyano-1,2-dimethyl-1H-pyrrol-3-yl)-5-(5-fluoro-4-methoxy-2-{[(3S)-3-(morpholin-4-ylmethyl)-3,4-dihydroisoquinolin-2(1H)-yl]carbonyl}phenyl)-N-(4-hydroxyphenyl)-1,2-dimethyl-1H-pyrrole-3-carboxamide hydrochloride]",13.6
3.5,"Cc1c(N(C(=O)c2cc(-c3cc(Cl)ccc3C(=O)N3Cc4ccccc4C[C@H]3CN3CCOCC3)n(C)c2C)c2ccccc2)cc(C#N)n1C [Example 441, 5-(5-Chloro-2-{[(3S)-3-(morpholin-4-ylmethyl)-3,4-dihydroisoquinolin-2(1H)-yl]carbonyl}phenyl)-N-(5-cyano-1,2-dimethyl-1H-pyrrol-3-yl)-1,2-dimethyl-N-phenyl-1H-pyrrole-3-carboxamide hydrochloride]",132
3,"Cc1c(C(=O)N(c2ccc(O)cc2)c2csc(C#N)c2)cc(-c2cc(Cl)ccc2C(=O)N2Cc3ccccc3C[C@H]2CN2CCOCC2)n1C [Example 442, 5-(5-Chloro-2-{[(3S)-3-(morpholin-4-ylmethyl)-3,4-dihydroisoquinolin-2(1H)-yl]carbonyl}phenyl)-N-(5-cyanothiophen-3-yl)-N-(4-hydroxyphenyl)-1,2-dimethyl-1H-pyrrole-3-carboxamide hydrochloride]",42.8

# Source: patent US9108983B2, “Pyrrole compounds, a process for their preparation and pharmaceutical compositions containing them” (LES LABORATOIRES SERVIER, priority 2013, dated 2015)
